This note sets out measurements from patent publication US8946224B2, “Substituted [1,2,4]triazolo[4,3-A]pyrazines for medicaments and pharmaceutical compositions” (Redx Pharma Limited, priority 2010, dated 2015).

≈ marks a conversion by molar mass, not a printed value. Where “and” joins values, the source holds several entries; their conditions need not be identical. Equal values may be shown once. Read-outs that look alike come from different tables or passages of the source.

One experiment has as its system plasma triglycerides. As to the kind of experiment: Rat plasma triglyceride levels after 3 or 5 days BID treatment. In kind it is in vivo. Conditions: 25 mg/kg po BID for 3 or 5 days, 16 hours after the last dose. How it is done:
The efficacy of particular rosuvastatin compounds was then determined in vivo.
112 male SD rats (Harlan) were housed in groups of 6 under a 12 h light dark cycle (lights on 07.00 h) with free access to food (normal laboratory chow) and water. Animals between 148-183 g were allocated to treatment groups of 8 balanced by body weight and treatments were balanced across cages.
The rosuvastatin analogues were made up in 10% PEG300/10% cremophor/80% methyl cellulose (0.5%) (vehicle 1) to make a 5 mg/mL solution. The rosuvastatin compounds used were:
Rosuvastatin was formulated in 0.5% Tween in 0.5% methyl cellulose (vehicle 2) at 5 mg/kg as a suspension.
Rats were orally dosed with vehicle 1, one of the rosuvastatin analogues in vehicle 1 (25 mg/kg), vehicle 2 or rosuvastatin in vehicle 2 (25 mg/kg po), BID for 3 or 5 days.
Sixteen hours after the last treatment, terminal plasma samples were taken, stored at −20° C., and transported on dry ice for analysis of triglyceride levels.
Data for each time-point were analysed by 1-way ANOVA and post-hoc Dunnett's test.

The next experiment addresses DPPIV (Homo sapiens, UniProt P27487). Description: DPPIV protease inhibition, substrate Gly-Pro-AMC (Example 97). In kind it is biochemical. The procedure:
The solutions of the compounds to be tested were prepared in DMSO at a concentration of 10 mM, divided into aliquots and stored at −20° C. The stock solutions were further diluted with assay buffer to make final test solutions. All the final test solutions contained no more than 2.0% DMSO.
Data were recorded by PHEARstar^PLUS.
Each assay was repeated for each compound 10 times.

Experiment [1] has as its system PathHunter NHRPro cell lines. Description: PathHunter NHRPro cell assay, agonist format (Examples 90-92). The class given is cell-based. The conditions noted are these: RARβ, NHR Protein Interaction; for EC50: read-out: RC50 (EC50); for Emax: read-out: Max Response. How it is done:
Methodology for Examples 90-92 Cell Handling
PathHunter NHRPro cell lines were expanded from freezer stocks in T25 flasks according to standard procedures and maintained in selective growth media prior to assay.
Once it was established that the cells were healthy and growing normally, cells were passaged from flasks using cell dissociation reagent and seeded into white walled clear bottom 384-well microplates for compound profiling.
For profiling, cells were seeded at a density of 10000 cells per well in a total volume of 20 μL and were allowed to adhere and recover overnight prior to compound addition. Media contained charcoal-dextran filtered serum to reduce the level of hormones present.
Intermediate dilution of compound stocks were generated such that 5 μL of 5× compound could be added to each well with a final DMSO concentration of 1% of total volume.
For profiling compound in agonist mode, the cells were incubated in the presence of compound at 37° C. for 5 hours.
After appropriate compound incubation, assay signal was generated through a single addition of 15 μL (50% v/v) of PathHunter Detection reagent cocktail for agonist and antagonist assays respectively followed by one hour incubation at room temperature.
Microplates were read following signal generation with a PerkinElmer Envision™ instrument for chemiluminescent signal detection.
Dose curves in the presence and absence of compound were plotted using GraphPad Prism or Activity Base.
For the agonist mode, percentage activity was calculated using the following formula: % Activity=100%×(Mean RLU of test sample−mean RLU of vehicle control)/(mean MAX RLU control ligand−mean RLU of vehicle control).

In experiment [2] the test system is anaerobic bacterial strains. As to the kind of experiment: microbe, parasite or virus in culture. The class given is cell-based, bacteria. The conditions noted are these: read-out: MIC (>90%).
The test system of a further experiment is HepG2 cells. Description: HepG2 cytotoxicity, MTT, 72 hours (Examples 93-95). The class given is cell-based. The conditions noted are these: Cell Loss; for AC50: Homo sapiens, HepG2, read-out: AC50 (concentration at which 50% maximum effect is observed). The procedure:
Methodology for Examples 93-95
A number of analogues were tested for their ability to kill cancer cells.
HepG2 cells were plated on 96-well tissue culture treated polystyrene plates at 0.5×10^4 cells in 100 μL per well. After 24 hr the cells are dosed with test compound at a range of concentrations and incubated for 72 hours. One hour prior to the end of the incubation period, the cells are loaded with MU [yellow; 3-(4,5-dimethyl-2-thiazolyl)-2,5-diphenyl-2H-tetrazolium bromide], the plates are dried and re-solubilised using DMSO. The plates are then scanned using SpectraFluor Plus (TECAN).
Cytotoxicity was assessed using MU. The assay provides a measurement of mitochondrial dehydrogenase activity and cell loss.
A decrease can indicate a loss of cells indicating toxicity due to necrosis, apoptosis or a reduction in cellular proliferation.
A decrease can also indicate an effect on mitochondrial function as mitochondrial dehydrogenasesreduce the MTT [yellow; 3-(4,5-dimethyl-2-thiazolyl)-2,5-diphenyl-2H-tetrazolium bromide] to formazan. The formazan is detected in this assay.
The cells were dosed at concentrations of 0.04, 0.1, 0.4, 1, 4, 10, 40 and 100 μM. The assay was repeated three times at each concentration.
AC50=The concentration at which 50% maximum effect is observed for each cell health parameter.
The cells were dosed at concentrations of 0.02, 0.05, 0.2, 0.5, 2, 5, 20 and 50 μM. The assay was repeated three times at each concentration.
The cells were dosed at concentrations of 0.04, 0.1, 0.4, 1, 4, 10, 40 and 100 μM for bexarotene and the compound of formula 102 when Z is CH═NOH (compound 13a). The cells were dosed at concentrations of 0.02, 0.05, 0.2, 0.5, 2, 5, 20 and 50 μM for the compound of formula 102 when Z is CH═NOMe (compound 13b). The assay was repeated three times at each concentration.

Experiment [3] deals with neuraminidase of oseltamivir-sensitive influenza virus (UniProt P03468). In kind it is biochemical.
Sequence of neuraminidase of oseltamivir-sensitive influenza virus (P03468 whole entry, looked up): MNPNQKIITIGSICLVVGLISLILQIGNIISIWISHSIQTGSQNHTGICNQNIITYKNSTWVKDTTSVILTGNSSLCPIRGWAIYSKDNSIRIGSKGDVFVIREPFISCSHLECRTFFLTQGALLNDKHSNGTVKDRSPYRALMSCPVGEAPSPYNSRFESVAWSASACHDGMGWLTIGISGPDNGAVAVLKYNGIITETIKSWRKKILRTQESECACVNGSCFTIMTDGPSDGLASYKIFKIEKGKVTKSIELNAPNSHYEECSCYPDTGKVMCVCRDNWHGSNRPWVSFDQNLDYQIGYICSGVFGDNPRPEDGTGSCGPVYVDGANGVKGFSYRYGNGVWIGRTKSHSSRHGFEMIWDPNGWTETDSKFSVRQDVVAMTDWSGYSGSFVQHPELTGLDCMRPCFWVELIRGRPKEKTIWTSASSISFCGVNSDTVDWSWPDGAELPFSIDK
Experiment [4] relates to PathHunter NHRPro cell lines. Description: PathHunter NHRPro cell assay, agonist format (Examples 90-92). In kind it is cell-based. Conditions: for EC50: read-out: RC50 (EC50).
The mark [5] stands for this setting: Bacteroides fragilis, ATCC25293, 48 h.
Setting [6] is: Prevotella melaninogenica, ATCC25845, 48 h.
[7] abbreviates: Example 95, dosed 0.04-100 μM (compound 13b 0.02-50 μM).

Sequence of DPPIV (P27487 whole entry, species assumed): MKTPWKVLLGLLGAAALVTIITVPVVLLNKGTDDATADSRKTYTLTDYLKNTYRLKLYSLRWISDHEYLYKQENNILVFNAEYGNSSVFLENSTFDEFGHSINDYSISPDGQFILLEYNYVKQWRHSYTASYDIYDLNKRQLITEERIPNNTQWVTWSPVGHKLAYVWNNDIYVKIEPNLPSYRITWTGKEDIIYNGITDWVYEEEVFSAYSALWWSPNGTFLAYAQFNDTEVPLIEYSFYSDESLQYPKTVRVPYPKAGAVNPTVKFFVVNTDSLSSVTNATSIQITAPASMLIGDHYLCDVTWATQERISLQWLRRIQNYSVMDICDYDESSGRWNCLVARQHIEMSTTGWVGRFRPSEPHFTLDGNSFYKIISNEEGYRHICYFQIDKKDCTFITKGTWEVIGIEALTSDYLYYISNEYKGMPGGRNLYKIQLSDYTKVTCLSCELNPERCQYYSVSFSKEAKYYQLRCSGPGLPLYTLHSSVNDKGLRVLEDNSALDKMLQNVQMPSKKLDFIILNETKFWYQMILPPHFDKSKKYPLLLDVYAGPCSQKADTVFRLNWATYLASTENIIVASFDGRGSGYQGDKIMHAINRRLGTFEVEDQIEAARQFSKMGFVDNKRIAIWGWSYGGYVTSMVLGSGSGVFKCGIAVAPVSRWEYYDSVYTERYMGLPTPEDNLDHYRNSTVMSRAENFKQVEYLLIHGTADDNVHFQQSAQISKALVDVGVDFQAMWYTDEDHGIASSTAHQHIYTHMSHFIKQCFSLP

As for `COC1C[C@H](OC(=O)c2cccnc2)C[C@@H](/C=C/c2c(-c3ccc(F)cc3)nc(N(C)S(C)(=O)=O)nc2C(C)C)O1` (stereo partly shown), the “In vivo (plasma triglycerides)” value in the experiment on plasma triglycerides is given as “Reduction in plasma triglycerides”.

On to `CC(C)OC1C[C@H](OCc2ccccc2)C[C@@H](/C=C/c2c(-c3ccc(F)cc3)nc(N(C)S(C)(=O)=O)nc2C(C)C)O1` (stereo partly shown), for which, in the experiment with plasma triglycerides, the “In vivo (plasma triglycerides)” value was “Reduction in plasma triglycerides”.

`CON=C(CC(=O)N1CCn2c(nnc2C(F)(F)F)C1)Cc1cc(F)c(F)cc1F` (mixture of isomers) [Compound 24b, 3-(Methoxyimino)-1-(3-(trifluoromethyl)-5,6-dihydro-[1,2,4]triazolo[4,3-a]pyrazin-7(8H)-yl)-4-(2,4,5-trifluorophenyl)butan-1-one]: the “Activity as inhibitor of DPPIV (in words)” value on DPPIV is “did not exhibit significant activity”.

As usually defined, the EC50 is the concentration giving half of the maximal effect. In the case of `CC1=C(/C=C/C(C)=C\C=C\C(C)=C\C(=O)O)C(C)(C)CCC1` [9 Cis Retanoic acid], in experiment [1], the “Max Response” value is 87.826 and 98.978; the EC50 was 5.04 nM and 7.14 nM.

Turning to `COc1ccc(-c2ccc3cc(C(=O)O)ccc3c2)cc1C12CC3CC(CC(C3)C1)C2` [Adapalene], in experiment [1], the Emax amounted to 147% and the EC50 was 1.8 nM.

For the compound `COC(Cn1c([N+](=O)[O-])cnc1C)OC` [Compound 3a, 1-(2,2-Dimethoxyethyl)-2-methyl-5-nitro-1H-imidazole], the MIC was 0.5 µg/mL (≈ 2.32 µM) in experiment [2] (setting [5]); at most 0.25 µg/mL in experiment [2] (Clostridioides difficile, 48 h); 1 µg/mL (≈ 4.65 µM) in experiment [2] (Clostridium perfringens, 48 h); 0.5 µg/mL (≈ 2.32 µM) in experiment [2] (setting [6]).

Consider `CON=CCn1c([N+](=O)[O-])cnc1C` [Compound 3b, 2-(2-Methyl-5-nitro-1H-imidazol-1-yl)acetaldehyde O-methyl oxime], for which the MIC in experiment [2] (setting [5]) was 0.5 µg/mL (≈ 2.52 µM); in experiment [2] (Clostridioides difficile, 48 h), at most 0.25 µg/mL; in experiment [2] (Clostridium perfringens, 48 h), 1 µg/mL (≈ 5.05 µM); in experiment [2] (setting [6]) it was 0.5 µg/mL (≈ 2.52 µM).

In the case of `COc1ccc(-c2ccc3cc(C=NO)ccc3c2)cc1C12CC3CC(CC(C3)C1)C2` [Compound 5a, 6-(3-(Adamantan-1-yl)-4-methoxyphenyl)-2-naphthaldehyde oxime], in experiment [1], the Emax stood at 45.1% and the EC50 was 1270 nM.

For `CON=Cc1ccc2cc(-c3ccc(OC)c(C45CC6CC(CC(C6)C4)C5)c3)ccc2c1` [Compound 5b, 6-(3-(Adamantan-1-yl)-4-methoxyphenyl)-2-naphthaldehyde O-methyl oxime], in experiment [1], the Emax came to 81.1% and the EC50 is 830 nM.

`C=C(c1ccc(C=NO)cc1)c1cc2c(cc1C)C(C)(C)CCC2(C)C` [Compound 13a, 4-(1-(3,5,5,8,8-Pentamethyl-5,6,7,8-tetrahydronaphthalen-2-yl)vinyl)benzaldehyde oxime]: in the experiment on HepG2 cells (setting [7]), the “MEC (minimum effective concentration that significantly crosses vehicle threshold)” value came to 40 µM and the AC50 is 15800 nM.

`C=C(c1ccc(C=NOC)cc1)c1cc2c(cc1C)C(C)(C)CCC2(C)C` [Compound 13b, 4-(1-(3,5,5,8,8-Pentamethyl-5,6,7,8-tetrahydronaphthalen-2-yl)vinyl)benzaldehyde O-methyl oxime]: in the experiment with HepG2 cells (setting [7]), the “MEC (minimum effective concentration that significantly crosses vehicle threshold)” value turned out to be 50 µM and the AC50 came to 45600 nM.

The IC50 is the concentration that inhibits the measured activity by half. A higher IC50 goes with weaker potency. In the case of `N[C@@H](CCN1CCn2c(nnc2C(F)(F)F)C1)Cc1cc(F)c(F)cc1F` [Compound 24a, (R)-4-(3-(Trifluoromethyl)-5,6-dihydro-[1,2,4]triazolo[4,3-a]pyrazin-7(8H)-yl)-1-(2,4,5-trifluorophenyl)butan-2-amine], the “Activity as inhibitor of DPPIV (in words)” value on DPPIV was “showed an activity”. The compound further registered an IC50 at DPPIV (DPPIV, substrate Gly-Pro-AMC) of 81.3 nM.

As for `COc1ccc(-c2ccc3cc(C=O)ccc3c2)cc1C12CC3CC(CC(C3)C1)C2` [Formula 135; Z is C(O)H], in experiment [1], the “Max Response” value is 115.93 and the EC50 worked out at 142 nM.

As for `COc1ccc(-c2ccc3cc(CO)ccc3c2)cc1C12CC3CC(CC(C3)C1)C2` [Formula 135; Z is CH2OH], in experiment [1], the “Max Response” value amounted to 131.9 and the EC50 came out at 199 nM.

Regarding `Cc1ncc([N+](=O)[O-])n1CCO` [Metronidazole, metronidazole, reference compound], the MIC is 0.25 µg/mL (≈ 1.46 µM) in experiment [2] (setting [5]); at most 0.25 µg/mL in experiment [2] (Clostridioides difficile, 48 h); 0.5 µg/mL (≈ 2.92 µM) in experiment [2] (Clostridium perfringens, 48 h); 0.25 µg/mL (≈ 1.46 µM) in experiment [2] (setting [6]).

As a reminder, the EC90 is the point of the concentration-response curve where the effect stands at 90%. The low end stands for an effect from little substance, the high end for a need for much substance. Compound `CCOC(=O)C1=C[C@@H](OC(CC)CC)[C@H](NC(C)=O)[C@@H](N)C1` [Oseltamivir, oseltamivir, reference compound] came in with an EC90 in experiment [3] of 1.3 nM. That is a single-digit nanomolar value.

As for `CC(=O)c1c(C)c2cnc(Nc3ccc(N4CCNCC4)cn3)nc2n(C2CCCC2)c1=O` [PD-0332991], in the experiment with HepG2 cells (Example 94, dosed 0.02-50 μM), the “MEC (minimum effective concentration that significantly crosses vehicle threshold)” value worked out at 0.2 µM and the AC50 was determined as 1930 nM.

`CC(C)c1nc(N(C)S(C)(=O)=O)nc(-c2ccc(F)cc2)c1/C=C/[C@@H](O)C[C@@H](O)CC(=O)O` [Rosuvastatin, reference compound]: the “In vivo (plasma triglycerides)” value with plasma triglycerides (25 mg/kg) is “Reduction in”; in the experiment with plasma triglycerides (listed as rosuvastatin, 25 mg/kg), “marked reduction in plasma triglycerides”.

Take `NC(=O)CC[C@@H]1NC(=O)[C@H](Cc2ccccc2)NC(=O)[C@H](Cc2ccc(O)cc2)NC(=O)[C@@H](N)CSSC[C@@H](C(=O)N2CCC[C@H]2C(=O)N[C@@H](CCCN=C(N)N)C(=O)NCC(N)=O)NC(=O)[C@H](CC(N)=O)NC1=O` [Vasopressin]: in experiment [4] (AVPR2, Arrestin), the “Max Response” value was 101.99 and the EC50 is 0.767 nM.

Turning to `COCCCOc1cc(CC(CC2NC(=O)OC2CC(C(=O)NCC(C)(C)C#N)C(C)C)C(C)C)ccc1OC` (stereo not shown) [comparative example], the “Anti-influenza neuraminidase activity (in words)” value in experiment [3] is “No activity was observed”.

For “Angiotensin II (DRVYIHPF; Angiotensin-2; UniProt P01019 25-32, looked up)”, in experiment [4] (AGTR1, Arrestin), the “Max Response” value was 101.02 and the EC50 amounted to 10.2 nM.
